COc1c(C)c2c(c(O)c1C/C=C(\C)CCC(=O)OCCN1CCOCC1)C(=O)OC2
solubility (mole fraction)
Conditions	in DMSO	in ethanol	in ethyl acetate	in ethylene glycol	in isopropanol	in n-butanol	in propylene glycol	in transcutol	in water
298.2 K	0.023	0.00613	0.0689	0.000715	0.00852	0.0108	0.00105	0.0393	1.75e-06
303.2 K	0.0272	0.00676	0.0744	0.000858	0.00934	0.0119	0.00126	0.0421	2.29e-06
308.2 K	0.0328	0.00749	0.0802	0.00103	0.0102	0.0132	0.00147	0.0452	2.87e-06
313.2 K	0.0388	0.00833	0.0856	0.0012	0.0111	0.0144	0.00168	0.0486	3.49e-06
318.2 K	0.0439	0.00906	0.0928	0.0014	0.0121	0.0159	0.00193	0.0522	4.16e-06

Conditions	solubility (mole fraction)
in PEG-400, 298.2 K	0.0271
in PEG-400, 303.2 K	0.0312
in PEG-400, 308.2 K	0.0355
in PEG-400, 313.2 K	0.0399
in PEG-400, 318.2 K	0.0449
